# From US20230227449A1, “AMIDOPYRIMIDONE DERIVATIVES” (Hoffmann-La Roche Inc., priority 2020, published 2023)
# Structures can show the parent of a compound that is named as a salt.
# Target: Recombinant human Mat2a (Homo sapiens, UniProt P31153)
# Assay: Determination of Mat2A activity (384 well absorbance-based assay, Biomol Green)
# Assay type: biochemical
# Details: 12.5 nM Mat2A, 100 μM ATP and Methionine, 2% DMSO, 120 minutes at RT, absorbance at 635 nm
# Procedure: Determination of Mat2A activity
# Measurement of Mat2A inhibition is performed in 384 well format absorbance-based assay. Recombinant human Mat2a (12.5 nM) and serial diluted compounds in DMSO (range of concentrations from […] to 508 pM) or controls (DMSO) are incubated for 15 minutes at room temperature (RT) in assay buffer containing 50 mM HEPES pH 7.5, 50 mM KCl, 50 mM MgCl2, 0.01% Tween 20 and 10 mM DTT. The reaction is initiated by the addition of the combined substrates ATP and Methionine, each at a final concentration of 100 μM. Final assay condition are 12.5 nM Mat2A, 100 μM ATP and Methionine Substrates and 2% DMSO. After 120 minutes of incubation at RT, the reaction is stopped by the addition of Biomol Green. The absorbance signal is measured at λ=635 nm with a multiplate reader (BMG Pherastar reader or equivalent) after 30 min of equilibration at RT.
# Recombinant human Mat2a, sequence (P31153 whole entry): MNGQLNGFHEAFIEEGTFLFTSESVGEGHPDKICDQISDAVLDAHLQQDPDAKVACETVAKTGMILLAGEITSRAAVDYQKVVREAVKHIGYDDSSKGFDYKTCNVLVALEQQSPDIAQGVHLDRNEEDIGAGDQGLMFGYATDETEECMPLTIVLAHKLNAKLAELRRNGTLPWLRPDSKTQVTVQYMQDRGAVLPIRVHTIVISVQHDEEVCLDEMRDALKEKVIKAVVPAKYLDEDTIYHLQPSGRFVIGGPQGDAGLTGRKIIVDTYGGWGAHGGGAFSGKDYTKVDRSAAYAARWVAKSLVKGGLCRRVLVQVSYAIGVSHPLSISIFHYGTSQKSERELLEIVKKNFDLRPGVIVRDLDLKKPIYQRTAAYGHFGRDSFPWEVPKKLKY
row,Structure (SMILES),IC50 [nM]
1,"C[C@@H]1OCCC[C@H]1n1c(=O)nc(N)c2ccc(C3CC3)nc21 [Example 119, 4-amino-7-cyclopropyl-1-((2S,3R)-2-methyltetrahydro-2H-pyran-3-yl)pyrido[2,3-d]pyrimidin-2 (1H)-one]",< 13
2,"Cc1ccccc1-n1c(=O)[nH]c(=O)c2ccc(C3CC3)cc21 [Example 100, 7-cyclopropyl-1-(2-methylphenyl)quinazoline-2,4-dione]",350
3,"Cc1ncccc1-n1c(=O)nc(N)c2c(Cl)cc(C(F)(F)F)cc21 [Example 87, 4-amino-5-chloro-1-(2-methylpyridin-3-yl)-7-(trifluoromethyl)quinazolin-2(1H)-one]",20
4,"Nc1nc(=O)n(C2CCC(O)C2)c2nc(C3CC3)ccc12 (centres unmarked) [Example 33, 4-amino-7-cyclopropyl-1-(3-hydroxycyclopentyl)pyrido[2,3-d]pyrimidin-2(1H)-one]",< 13
5,"Cc1cccc(-n2c(=O)nc(N)c3ccc(C4CC4)nc32)c1Cl [Example 130, 4-amino-1-(2-chloro-3-methylphenyl)-7-cyclopropylpyrido[2,3-d]pyrimidin-2-one]",< 13
6,"N#Cc1cccc(-n2c(=O)nc(N)c3ccc(C4CC4)nc32)c1F [Example 126, 3-(4-amino-7-cyclopropyl-2-oxopyrido[2,3-d]pyrimidin-1 (2H)-yl)-2-fluorobenzonitrile]",< 13
7,"CC(C1CCOC1)n1c(=O)nc(N)c2ccc(C3CC3)nc21 (centres unmarked) [Example 13, 4-amino-7-cyclopropyl-1-[1-(oxolan-3-yl)ethyl]pyrido[2,3-d]pyrimidin-2-one]",23
8,"Cc1ncccc1-n1c(=O)nc(N)c2ccc(C3COC3)cc21 [Example 22, 4-amino-1-(2-methylpyridin-3-yl)-7-(oxetan-3-yl)quinazolin-2(1H)-one]",21
9,"COc1cccc(-n2c(=O)nc(N)c3ccc(C4CC4)nc32)c1 [Example 71, 4-amino-7-cyclopropyl-1-(3-methoxyphenyl)pyrido[2,3-d]pyrimidin-2(1H)-one]",< 13
10,"Cc1cccc(-n2c(=O)nc(N)c3ccc(OC(F)F)cc32)c1 [Example 134, 4-amino-7-(difluoromethoxy)-1-(m-tolyl)quinazolin-2 (1H)-one]",20
11,"Cc1ncoc1-n1c(=O)nc(N)c2ccc(C3CC3)nc21 [Example 50, 4-amino-7-cyclopropyl-1-(4-methyloxazol-5-yl)pyrido[2,3-d]pyrimidin-2-one]",19
12,"Cc1ccccc1-n1c(=O)nc(N)c2ccc(Cl)nc21 [Example 62, 4-amino-7-chloro-1-(o-tolyl)pyrido[2,3-d]pyrimidin-2(1H)-one]",20
13,"Nc1nc(=O)n(-c2cccc(OC(F)(F)F)n2)c2nc(C3CC3)ccc12 [Example 163, 4-amino-7-cyclopropyl-1-[6-(trifluoromethoxy)pyridin-2-yl]pyrido[2,3-d]pyrimidin-2-one]",31
14,"Nc1nc(=O)n(-c2cccnc2Cl)c2nc(C3CC3)ccc12 (single isomer, unassigned) [Example 136, (−)-4-amino-1-(2-chloropyridin-3-yl)-7-cyclopropylpyrido[2,3-d]pyrimidin-2 (1H)-one]",150
15,"Nc1nc(=O)n(-c2cccc3c2CCO3)c2cc(C3CC3)ccc12 [Example 45, 4-amino-7-cyclopropyl-1-(2,3-dihydrobenzofuran-4-yl)quinazolin-2(1H)-one]",< 13
16,"Cc1ncccc1-n1c(=O)nc(N)c2ccc(C3CCOC3)nc21 (centres unmarked) [Example 93, 4-amino-1-(2-methylpyridin-3-yl)-7-(tetrahydrofuran-3-yl)pyrido[2,3-d]pyrimidin-2 (1H)-one]",27
17,"COc1cc(C(F)(F)F)cc2c1c(N)nc(=O)n2-c1cccnc1C [Example 102, 4-amino-5-methoxy-1-(2-methylpyridin-3-yl)-7-(trifluoromethyl)quinazolin-2 (1H)-one]",14
18,"COc1c(C#N)cccc1-n1c(=O)nc(N)c2cc(Cl)c(C(C)C)nc21 [Example 105, 3-(4-amino-6-chloro-7-isopropyl-2-oxopyrido[2,3-d]pyrimidin-1 (2H)-yl)-2-methoxybenzonitrile]",42
19,"COc1ccccc1-n1c(=O)nc(N)c2ccc(-c3ccccc3)nc21 [Example 4, 4-amino-1-(2-methoxyphenyl)-7-phenylpyrido[2,3-d]pyrimidin-2(1H)-one]",31
20,"Cc1ccccc1-n1c(=O)nc(N)c2cc(OC(F)F)c(C3CC3)nc21 [Example 113, 4-amino-7-cyclopropyl-6-(difluoromethoxy)-1-(o-tolyl)pyrido[2,3-d]pyrimidin-2-one]",14
21,Nc1nc(=O)n(-c2cccc3ncsc23)c2nc(C3CC3)ccc12 [Example 120],< 13

row,Structure (SMILES),IC50 [nM]
1,"Cc1c(F)cccc1-n1c(=O)nc(N)c2ccc(C3CC3)nc21 (single isomer, unassigned) [Example 104, (−)-4-amino-7-cyclopropyl-1-(3-fluoro-2-methylphenyl)pyrido[2,3-d]pyrimidin-2 (1H)-one]",110
2,"Nc1nc(=O)n(C2CCNC(=O)C2)c2nc(C3CC3)ccc12 (centres unmarked) [Example 97, 4-amino-7-cyclopropyl-1-(2-oxopiperidin-4-yl)pyrido[2,3-d]pyrimidin-2 (1H)-one]",48
3,"Cc1ncccc1-n1c(=O)nc(N)c2c(F)cc(C(F)(F)F)cc21 [Example 59, 4-amino-5-fluoro-1-(2-methylpyridin-3-yl)-7-(trifluoromethyl)quinazolin-2 (1H)-one]",14
4,"Cc1cc(F)ccc1-n1c(=O)nc(N)c2ccc(C3CC3)nc21 [Example 67, 4-amino-7-cyclopropyl-1-(4-fluoro-2-methylphenyl)pyrido[2,3-d]pyrimidin-2-one]",18
5,"CCc1cccc(-n2c(=O)nc(N)c3ccc(C4CC4)nc32)c1 [Example 68, 4-amino-7-cyclopropyl-1-(3-ethylphenyl)pyrido[2,3-d]pyrimidin-2(1H)-one]",< 13
6,"C[C@H]1OCCC[C@@H]1n1c(=O)nc(N)c2ccc(C3CC3)nc21 [Example 118, 4-amino-7-cyclopropyl-1-((2R,3S)-2-methyltetrahydro-2H-pyran-3-yl)pyrido[2,3-d]pyrimidin-2 (1H)-one]",13
7,"Nc1nc(=O)c(-c2ccccc2Cl)c2cc(C3CC3)ccn12 [Example 111, 4-(2-chlorophenyl)-6-cyclopropyl-1-imino-pyrido[1,2-c]pyrimidin-3-one]",< 13
8,"N#Cc1cccc(-n2c(=O)nc(N)c3ccc(C4CC4)nc32)c1 [Example 151, 3-(4-amino-7-cyclopropyl-2-oxopyrido[2,3-d]pyrimidin-1 (2H)-yl)benzonitrile]",< 13
9,"Cc1c(F)cccc1-n1c(=O)nc(N)c2ccc(OC(F)F)cc21 [Example 122, 4-amino-7-(difluoromethoxy)-1-(3-fluoro-2-methylphenyl)quinazolin-2 (1H)-one]",< 13
10,"Nc1nc(=O)n(C2COCCOC2)c2nc(C3CC3)ccc12 [Example 107, 4-amino-7-cyclopropyl-1-(1,4-dioxepan-6-yl)pyrido[2,3-d]pyrimidin-2-one]",25
11,"CC(c1ccccn1)n1c(=O)nc(N)c2ccc(C3CC3)nc21 (centres unmarked) [Example 82, 4-amino-7-cyclopropyl-1-(1-pyridin-2-ylethyl)pyrido[2,3-d]pyrimidin-2-one]",36
12,"Nc1nc(=O)n(-c2cccc(Cl)c2)c2nc(C3CC3)ccc12 [Example 152, 4-amino-1-(3-chlorophenyl)-7-cyclopropylpyrido[2,3-d]pyrimidin-2 (1H)-one]",14
13,"Cc1cccc(-n2c(=O)nc(N)c3ccc(C4CC4)nc32)c1 [Example 69, 4-amino-7-cyclopropyl-1-(m-tolyl)pyrido[2,3-d]pyrimidin-2(1H)-one]",< 13
14,"Cc1ncccc1-n1c(=O)nc(N)c2ccc(CC(F)(F)F)cc21 [Example 83, 4-amino-1-(2-methyl-3-pyridyl)-7-(2,2,2-trifluoroethyl)quinazolin-2-one hydrochloride]",32
15,"Cc1ncccc1-n1c(=O)nc(N)c2ccc([C@@H]3C[C@H]3C)nc21 (racemic) [Example 23, 4-amino-7-((1RS,2RS)-2-methylcyclopropyl)-1-(2-methylpyridin-3-yl)pyrido[2,3-d]pyrimidin-2(1H)-one]",18
16,"Cc1ncccc1-n1c(=O)nc(N)c2ccc(C(F)(F)F)nc21 [Example 32, 4-amino-1-(2-methylpyridin-3-yl)-7-(trifluoromethyl)pyrido[2,3-d]pyrimidin-2(1H)-one]",< 13
17,"Nc1nc(=O)n(-c2cccc3c2CCO3)c2nc(C(F)(F)F)ccc12 [Example 162, 4-amino-1-(2,3-dihydrobenzofuran-4-yl)-7-(trifluoromethyl)pyrido[2,3-d]pyrimidin-2 (1H)-one]",< 13
18,"Nc1nc(=O)n(-c2cccc3c2OCC3)c2nc(C3CC3)ccc12 [Example 63, 4-amino-7-cyclopropyl-1-(2,3-dihydrobenzofuran-7-yl)pyrido[2,3-d]pyrimidin-2(1H)-one]",15
19,"Nc1nc(=O)n(-c2ccccc2Cl)c2nc(C3CC3)ccc12 [Example 64, 4-amino-1-(2-chlorophenyl)-7-cyclopropylpyrido[2,3-d]pyrimidin-2-one]",< 13
20,"COc1c(F)cccc1-n1c(=O)nc(N)c2ccc(C3CC3)nc21 [Example 14, 4-amino-7-cyclopropyl-1-(3-fluoro-2-methoxyphenyl)pyrido[2,3-d]pyrimidin-2(1H)-one]",27
